Data on 3 molecules can be found in paper PMC3215271 (European journal of pharmacology, 2011).

By Ki is commonly meant a measure of affinity in units of concentration, obtained from inhibition or displacement. Usually IC50 stands for the concentration that gives 50% inhibition.

The test system of data set [1] is formalin-induced flinching behavior. Particulars: formalin model; i.p.; ref Holtman et al., 2010b; cited from earlier work.
In data set [2] the test system is mechanical hyperalgesia. Particulars: chronic constriction injury; i.p.; ref Holtman et al., 2010b; cited from earlier work.
The subject of data set [3] is rotarod performance. The note with it: ref Holtman et al., 2010b, cited from earlier work.
In data set [4] the target is T1, human serotonin(3) receptor (Homo sapiens, UniProt P46098).
T1 sequence (P46098 24-478): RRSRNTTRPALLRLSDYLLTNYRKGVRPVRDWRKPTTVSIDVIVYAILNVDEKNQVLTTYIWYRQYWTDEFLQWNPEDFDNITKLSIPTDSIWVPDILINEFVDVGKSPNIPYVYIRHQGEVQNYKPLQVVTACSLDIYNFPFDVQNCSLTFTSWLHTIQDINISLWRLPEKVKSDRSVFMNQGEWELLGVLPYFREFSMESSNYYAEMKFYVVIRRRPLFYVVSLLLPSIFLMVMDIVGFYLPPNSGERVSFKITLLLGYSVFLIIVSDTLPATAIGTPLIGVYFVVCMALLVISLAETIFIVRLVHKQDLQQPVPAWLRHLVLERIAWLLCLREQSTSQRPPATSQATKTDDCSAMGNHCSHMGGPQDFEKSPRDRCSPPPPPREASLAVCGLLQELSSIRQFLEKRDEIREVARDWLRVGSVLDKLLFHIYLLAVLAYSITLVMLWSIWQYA
Put plainly: Competition radioligand binding, [3H]LY278584. Particulars: for Ki: 5HT3.

Data set [5] addresses rat γ-aminobutyric acid(A) receptor. In words: Competition radioligand binding, [3H]muscimol, rat brain membranes. Particulars: GABAA; [3H]muscimol 5 nM.
The target of data set [6] is rat γ-aminobutyric acid(B)(1b,2) receptor (Rattus norvegicus, UniProt Q9Z0U4). Put plainly: Competition radioligand binding, [3H]CGP54626. Particulars: GABAB; [3H]CGP54626 2 nM.
For data set [7], the target named is rat κ-opioid receptor (Rattus norvegicus, UniProt P34975). In words: Competition radioligand binding, [3H]U69593. The note with it: 95% CI in parentheses.
Data set [8] has as its target human μ-opioid receptor (Homo sapiens, UniProt P35372). In words: Competition radioligand binding, [3H]DAMGO. Particulars: 95% CI in parentheses.
Data set [9] has as its system formalin-induced flinching behavior. Put plainly: Rodent model of inflammatory pain. Format: in vivo, rat. Particulars: for ED50 (95% CI): formalin test, i.p. 15 min prior to formalin, rat.
The subject of data set [10] is mechanical hyperalgesia. In words: Chronic constriction nerve injury model of neuropathic pain. Format: in vivo, rat.
For data set [11], the system named is tail flick latency. In words: Thermal acute nociception. Format: in vivo, rat. The note with it: for maximum possible effect: tail-flick.
Data set [12] concerns rotarod performance. In words: Motor coordination. Format: in vivo, rat.
The subject of data set [13] is α4β2* nicotinic acetylcholine receptors. Particulars: binding assays; ref Zhang et al., 2008; cited from earlier work.
Data set [14] concerns nicotinic acetylcholine receptors mediating nicotine-evoked dopamine release. Particulars: ref Zhang et al., 2008; cited from earlier work.
Data set [15] deals with nicotinic acetylcholine receptor subtype. In words: Agonist activity at nicotinic receptor subtypes in Xenopus oocytes. Particulars: any nicotinic acetylcholine receptor subtype evaluated; data not shown.
Data set [16] has as its target α7 nicotinic acetylcholine receptors (Rattus norvegicus, UniProt Q05941). Put plainly: Voltage clamp electrophysiology, cloned α7 nicotinic receptor in Xenopus oocytes. Particulars: 95% CI in parentheses.
Data set [17] deals with α2β2 nicotinic acetylcholine receptor (Rattus norvegicus, UniProt P12389+P12390). The note with it: 95% CI in parentheses.
Data set [18] concerns the target α2β4 nicotinic acetylcholine receptor (Rattus norvegicus, UniProt P12389+P12392). Particulars: 95% CI in parentheses.
The target in data set [19] is α3β2 nicotinic acetylcholine receptor (Rattus norvegicus, UniProt P04757+P12390). The note with it: 95% CI in parentheses.
The target of data set [20] is α3β4 nicotinic acetylcholine receptor (Rattus norvegicus, UniProt P04757+P12392). The note with it: 95% CI in parentheses.
Data set [21] deals with α4β2 nicotinic acetylcholine receptors (Rattus norvegicus, UniProt P09483+P12390).
The target in data set [22] is α4β4 nicotinic acetylcholine receptor (Rattus norvegicus, UniProt P09483+P12392). The note with it: 95% CI in parentheses.
The target of data set [23] is α9α10 nicotinic acetylcholine receptors (Rattus norvegicus, UniProt P43144+Q9JLB5).
Data set [24] concerns the target α1β1δε nicotinic acetylcholine receptor (Mus musculus, UniProt P02716+P04756+P09690+P20782). The note with it: 95% CI in parentheses.
For data set [25], the target named is α6/α3β4 nicotinic acetylcholine receptor (Rattus norvegicus, UniProt P04757+P12392+P43143). The note with it: 95% CI in parentheses.
The target of data set [26] is α6/α3β2β3 nicotinic acetylcholine receptor (Rattus norvegicus, UniProt P04757+P12390+P12391+P43143). Particulars: 95% CI in parentheses.
The conditions of data set [27]: in vivo; cited from earlier work.
The mark [28] stands for this setting: chronic constriction injury paw, 3600 μg/kg i.p.

“And” between values parts separate entries of the source, which are not always exact repeats. Equal entries are not always repeated. “Also recorded” adds a separate entry of the source.

`c1cncc([C@@H]2CCCN2)c1` [S(−) nornicotine]: the ED50 is recorded as 1.5 (0.6–3.6) mg/kg in data set [1]; 5.2 (3.1–8.5) mg/kg in [2]; 13.6 (9.2–19.9) mg/kg in [3] (rotarod, motor impairment, i.p.). Also, the “ED50 for motor impairment vs. analgesia, fold higher” value in [3] (rotarod vs chronic constriction injury and formalin) is reported as 3–9 fold.

With `C(#Cc1cc(C#CCCC[n+]2cccc(-c3ccccc3)c2)c(C#CCCC[n+]2cccc(-c3ccccc3)c2)cc1C#CCCC[n+]1cccc(-c2ccccc2)c1)CCC[n+]1cccc(-c2ccccc2)c1.[Br-].[Br-].[Br-].[Br-]` [ZZ-204G, 5,5′,5″, 5‴-(1,2,4,5-benzenetetrayl)tetrakis-[1-(3-phenylpyridinium)-4-pentyne] tetrabromide], the Ki in data set [4] ([3H]LY278584 0.3 nM, 95% CI in parentheses) was 2230 nM; in data set [4] (displacing [3H]LY27854), 2200 nM; in data set [5], over 10000 nM; in data set [6], over 10000 nM; in [7] (κ-opioid, [3H]U69593 0.3 nM), 783 nM; in [8] (μ-opioid, [3H]DAMGO 0.3 nM), 659 nM. In addition, the “Hill Slope” value in data set [4] (5HT3 binding, 95% CI in parentheses) is 1.05 (0.73–1.37); in data set [7] (κ-opioid binding), 0.95 (0.67–1.2); in data set [8] (μ-opioid binding) it was 1.1 (0.94–1.3); in data set [16], 1.03 (0.48–1.6); in [17], 1.25 (0.98–1.5); in data set [18], 1.36 (0.98–1.7). The “Hill Slope” value in data set [19] is 1.11 (0.28–1.9); in data set [20], 1.56 (1.1–2.0); in data set [21] (95% CI in parentheses), 1.05 (0.73–1.4); in [22], 1.6 (0.99–2.2); in data set [23] (α9α10, 95% CI in parentheses) it was 0.84 (0.59–1.1); in data set [24], 1.61 (1.2–2.1). For the same molecule, the “Hill Slope” value is 1.2 (0.73–1.8) in data set [25] and 0.44 (0.33–0.56) in data set [26]. Further, the “ED50 (95% CI)” value is recorded as 16.2 (2.9–90.3) μg/kg in data set [9] (the first phase (0–10 min)) and 2.12 (1.24 – 5.65) μg/kg in data set [9] (the second phase (20–60 min)). Besides, the “greater potency against formalin-evoked inflammatory pain than neuropathic pain” value in data set [9] (formalin vs chronic constriction injury) was ~ 50 fold. In addition, the maximum possible effect turned out to be 81.9±7.6% in data set [10] (setting [28]), 8.4±4.6% in [11] (3.6 μg/kg i.p.), 6.2±1.75% in data set [11] (36 μg/kg i.p.) and 15.6±2.4% in [11] (360 μg/kg i.p.). For the same molecule, in data set [10] (setting [28]), the “time maximum possible effect was maintained after administration” value was found to be 240 min. Also, in [10] (setting [28]), the “time to reach maximum possible effect” value is at most 60 min. Besides, the “ED50 (95% CL)” value in [10] (chronic constriction injury, paw pressure test, mechanical hyperalgesia, i.p., rat) is on record as 96.2 (35.7–255.3) μg/kg. Also, the “AUC0–120min (antihyperalgesic effect)” value in [10] (chronic constriction injury, 3.6 μg/kg i.p.) is 932.8±672.1; in data set [10] (chronic constriction injury, 36 μg/kg i.p.), 1845.3±1008.0; in data set [10] (chronic constriction injury, 360 μg/kg i.p.), 3126.6±840.9; in data set [10] (chronic constriction injury, 3600 μg/kg i.p.), 6946.9±1632.2. Besides, the “antinociceptive effect in the tail-flick assay” value in data set [11] (3.6, 36, 360 μg/kg i.p. vs saline) is “not antinociceptive; also recorded: did not significantly differ from that of saline control”. In data set [12] (naïve rats, 3,600 ug/kg), the “motor effect at highest antihyperalgesic dose” value is “significant motor effect”. Moreover, the “ED50 (95% CI), motor incoordination” value in [12] (rotarod performance, intact rats, i.p.) was 1884 (942–3767) μg/kg. For the same molecule, the “affinity for α4β2* nicotinic acetylcholine receptors” value in data set [13] is recorded as “poor affinity”. The “antagonism at nicotinic receptors mediating nicotine-evoked dopamine release” value in data set [14] is “weak antagonist”. For the same molecule, the agonist activity entry in data set [15] is given as “No agonist activity”. Besides, the IC50 stood at 8.8 nM in data set [16] (oocytes, acetylcholine 200 μM); 2330 nM in data set [17] (oocytes, acetylcholine 100 μM); 2900 nM in data set [18] (oocytes, acetylcholine 100 μM); 750 nM in data set [19] (oocytes, acetylcholine 100 μM); 792 nM in data set [20] (oocytes, acetylcholine 100 μM); 3830 nM in data set [21] (oocytes, acetylcholine 100 μM, 95% CI in parentheses). The IC50 came out at 1730 nM in data set [22] (oocytes, acetylcholine 100 μM); 120 nM in [24] (oocytes, acetylcholine 10 μM); 6140 nM in data set [25] (oocytes, acetylcholine 100 μM); 98.2 nM in data set [26] (oocytes, acetylcholine 100 μM). The “block of acetylcholine-induced currents” value in data set [21] (100 nM compound) is ~ 5% and < 5%. For the same molecule, the “inhibition of the acetylcholine response” value in [23] (α9α10, 10 nM compound, 0.01 µM) is 93.9 ± 1.4% and ~ 95%. For the same molecule, in data set [23] (α9α10, 100 nM compound, n=3, data not shown), the “effect on current with Ca++ in buffer replaced with equimolar Ba++” value was “abolished the current”. Moreover, the reversibility of block entry in data set [23] (α9α10, washout of compound) is on record as “Block was reversed upon washout”. Moreover, in data set [23] (κ- and μ-opioid receptors vs α9α10), the “potency at κ- and μ-opioid receptors, fold less than at α9α10” value was determined as 1000 fold.

With α-conotoxin Vc1.1, the adverse effects result in [27] was “did not produce any adverse effects”.
